Test results as given in paper PMC9028714 (Journal of Personalized Medicine, 2022).

Columns and labels:
[1] = Apixaban and rivaroxaban capillary blood concentrations (DBS, LC-MS/MS) in hospitalized patients; format: in vivo, human; settings: concentrations normalized by the dosing regimen
Protocol: Comedications were systematically screened to record patients taking CYP3A4/5 and/or P-gp inhibitors and/or inducers using the Lexicomp drug interaction analysis tool and the Geneva Table of CYP substrates, inhibitors, and inducers. Adequacy of dosage was assessed according to the SmPC criteria (indication, age, CrCl, and weight).
The DBS concentrations were determined using a validated LC-MS/MS method.
After agitation during 10 min, 10 μL of the supernatant was injected into the LC-MS/MS system. Separation was performed with a Kinetex® C18 column (50 × 2.1 mm, 2.6 µm) from Phenomenex (Brechbühler, Schlieren, Switzerland) under gradient conditions. The mobile phase was composed of formic acid 0.1% in water and in acetonitrile. The total run time was 7 min. Detection of analytes was obtained in positive mode using multiple reaction monitoring (MRM). Instrument parameters were as follows: curtain gas = 40 psi, collision gas = high, IonSpray voltage = […], temperature = 550 °C, ion source gas 1 = 60 psi, ion source gas 2 = 60 psi.

[2] = test system: CYP2J2 and CYP1A2; set-up: method as in PMID 32157630; settings: cited from earlier work
[3] = Multivariable linear regression: genotype of CYP3A and P-gp vs AUC0–6h or C2h of apixaban and rivaroxaban; format: in vivo, human; settings: for observed variability of AUC0–6h explained by the model: Table 4; for C2h, β (CI95%): Age 65–74 years / C2h, β (CI95%): Age 75–84 years / C2h, β (CI95%): Age >85 years: reference category <65 years; for C2h, β (CI95%): Gender, Female: reference category Male; for C2h, β (CI95%): Genotype ABCB1 1236C>T, Heterozygous for mutation / C2h, β (CI95%): Genotype ABCB1 1236C>T, Homozygous for mutation / C2h, β (CI95%): Genotype ABCB1 2677G>T, Heterozygous for mutation / C2h, β (CI95%): Genotype ABCB1 2677G>T, Homozygous for mutation / C2h, β (CI95%): Genotype ABCB1 3435C>T, Heterozygous for mutation / C2h, β (CI95%): Genotype ABCB1 3435C>T, Homozygous for mutation: reference category No mutation
Protocol: Genotyping of selected CYP3A4/5 and ABCB1 polymorphisms was carried out on QuantStudio^TM 12K Flex Real-Time (RT) PCR System with TaqMan® OpenArray^TM genotyping assays and TaqMan® MGB Probe Validated Single Nucleotide Polymorphism (SNP) Genotyping Assays (Applied Biosystems, Thermo Fisher Scientific, Waltham, MA, USA), respectively. These methods were previously described in detail in the literature. […] All SNPs of CYP3A4/5 integrated in the TaqMan® OpenArray^TM PGx Express Panel (Thermo Fisher Scientific, Waltham, MA, USA) were considered and are listed in Supplementary Table S1. Finally, raw genotyping data were processed with the TaqMan® Genotyper software (Thermo Fisher Scientific, Waltham, MA, USA) according to the manufacturer’s protocol.
AlleleTyper™ Software and translational tables (Thermo Fisher Scientific and PharmGKB, Stanford, CA, USA) were used to translate genetic pattern information from genotyping (SNPs) to pharmacogenomic gene-level star (*) nomenclature. Allele and genotype frequencies were determined, and Hardy–Weinberg equilibrium (HWE) was tested. […] The CYP3A activity predicted from the genotype combines the effects of CYP3A4 and CYP3A5 SNPs on enzyme activities, as listed in the PharmVar and PharmGKB databases. Patients were classified into poor metabolizer (PM), intermediate metabolizer (IM), normal metabolizer (NM), and ultra-rapid metabolizer (UM) according to the classification described by Andreu et al..
Missing data were excluded from the analysis.

[4] = test system: CYP3A; set-up: method as in PMID 32157630; settings: cited from earlier work
[5] = set-up: method as in PMID 33808739, PMID 30223963; settings: cited from earlier work
[6] = Multivariable linear regression: phenotypic activity of CYP3A and P-gp vs AUC0–6h or C2h of apixaban and rivaroxaban; settings: for observed variability of AUC0–6h predicted by the model: Table 3; for C2h, β (CI95%): Age 65–74 years / C2h, β (CI95%): Age 75–84 years / C2h, β (CI95%): Age >85 years: reference category <65 years; for C2h, β (CI95%): Gender, Female: reference category Male;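 as to all read-outs here: outcome C2h is the drug concentration 2 h post-dose, with regression coefficient errors from a sandwich estimator after a Breusch–Pagan heteroscedasticity check and missing data excluded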
Protocol: Dependent variables (outcomes) for both drugs were defined as being the values of AUC0–6h and concentration 2 h after drug administration (C2h). […] The Breusch–Pagan test was used to detect a potential heteroscedasticity issue, and consistent standard errors of the regression coefficients were assessed with a sandwich estimator. […] In addition, association between dependent variables and predicted activity of CYP3A and P-gp from genotype were also adjusted for a pre-specified set of potential confounding factors (gender, CrCl, BMI, age, dose). Spearman’s correlation was used to assess the concordance between genotype and phenotype of CYP3A and P-gp. Missing data were excluded from the analysis.

[7] = test system: CYP2J2; set-up: method as in PMID 32157630; settings: cited from earlier work
[8] = genotype model, Table S4, reference category 2.5 mg bid
[9] = genotype model, Table S4, reference category IM
[10] = phenotype model, Table S3, reference category 2.5 mg bid
[11] = genotype model, Table S4, reference category 10 mg od
[12] = phenotype model, Table S3, reference category 10 mg od

Row | Compound | inter-individual CV of blood concentrations ([1]; administered bid) [%] | observed variability of AUC0–6h explained by the model [3] | C2h, β (CI95%): ALAT, per unit ([3]; genotype model, Table S4) | C2h, β (CI95%): CrCl, per unit ([3]; genotype model, Table S4) | C2h, β (CI95%): Intercept ([3]; genotype model, Table S4) | C2h, β (CI95%): Age 65–74 years ([3]; genotype model, Table S4) | C2h, β (CI95%): Age 75–84 years ([3]; genotype model, Table S4) | C2h, β (CI95%): Age >85 years ([3]; genotype model, Table S4) | C2h, β (CI95%): Predicted phenotype from genotype CYP3A, PM [3, 9] | C2h, β (CI95%): Gender, Female ([3]; genotype model, Table S4) | C2h, β (CI95%): Genotype ABCB1 1236C>T, Heterozygous for mutation ([3]; genotype model, Table S4) | C2h, β (CI95%): Genotype ABCB1 1236C>T, Homozygous for mutation ([3]; genotype model, Table S4) | C2h, β (CI95%): Genotype ABCB1 2677G>T, Heterozygous for mutation ([3]; genotype model, Table S4) | C2h, β (CI95%): Genotype ABCB1 2677G>T, Homozygous for mutation ([3]; genotype model, Table S4) | C2h, β (CI95%): Genotype ABCB1 3435C>T, Heterozygous for mutation ([3]; genotype model, Table S4) | C2h, β (CI95%): Genotype ABCB1 3435C>T, Homozygous for mutation ([3]; genotype model, Table S4) | share of metabolism CYP3A is responsible for [4] [%] | excreted by the kidney [5] | observed variability of AUC0–6h predicted by the model ([6]; phenotype model) [%] | C2h, β (CI95%): ALAT, per unit ([6]; phenotype model, Table S3) | further results
1 | COc1ccc(-n2nc(C(N)=O)c3c2C(=O)N(c2ccc(N4CCCCC4=O)cc2)CC3)cc1 [Apixaban] | 47.7 | approximately 40% | 0.07 (−0.17 to 0.32) | −0.48 (−0.75 to −0.21) | 80.68 (42.43 to 118.93) | 5.10 (−15.52 to 25.71) | 9.29 (−10.54 to 29.12) | 14.31 (−10.69 to 39.31) | −18.61 (−36.00 to −1.21) | 5.44 (−5.98 to 16.87) | −1.26 (−23.09 to 20.57) | −9.35 (−36.76 to 18.06) | 8.08 (−14.86 to 31.01) | 9.94 (−17.81 to 37.69) | −7.52 (−24.64 to 9.60) | −2.70 (−18.04 to 12.65) | 15 | 25–30% | 47 | 0.06 (−0.13 to 0.25) | contribution of CYP2J2 and CYP1A2 together to metabolism [2]: 6%; C2h, β (CI95%): Dose 5 mg bid [3, 8]: 51.17 (37.82 to 64.51); C2h, β (CI95%): Dose 10 mg bid [3, 8]: 113.17 (81.73 to 145.52); decrease in CrCl with an effect comparable to P-gp phenoconversion NM to PM ([6]; according to the AUC0–6h model): 37.6 mL/min/1.73 m^2; C2h, β (CI95%): CrCl, per unit ([6]; phenotype model, Table S3): −0.40 (−0.67 to −0.13); C2h, β (CI95%): Intercept ([6]; phenotype model, Table S3): −0.46 (−51.98 to 51.05); C2h, β (CI95%): MRmidazolam, per log10 ([6]; phenotype model, Table S3): 6.07 (−8.08 to 20.22); C2h, β (CI95%): Weight, per kg ([6]; phenotype model, Table S3): −0.02 (−0.37 to 0.33); C2h, β (CI95%): Dose 5 mg bid [6, 10]: 51.97 (41.16 to 62.78); C2h, β (CI95%): Dose 10 mg bid [6, 10]: 116.28 (80.44 to 152.12); C2h, β (CI95%): Age 65–74 years ([6]; phenotype model, Table S3): 8.61 (−10.00 to 27.23); C2h, β (CI95%): Age 75–84 years ([6]; phenotype model, Table S3): 13.69 (−5.59 to 32.97); C2h, β (CI95%): Age >85 years ([6]; phenotype model, Table S3): 17.73 (−3.37 to 38.82); C2h, β (CI95%): Gender, Female ([6]; phenotype model, Table S3): 4.07 (−5.94 to 14.08)
2 | O=C(NC[C@H]1CN(c2ccc(N3CCOCC3=O)cc2)C(=O)O1)c1ccc(Cl)s1 [Rivaroxaban] | 41.5 | ~18% | 0.08 (−0.06 to 0.22) | −0.14 (−0.61 to 0.32) | −10.99 (−88.50 to 66.51) | 24.56 (8.41 to 40.71) | 25.66 (−1.56 to 52.88) | 19.86 (−9.35 to 49.08) | 24.72 (−8.3 to 57.73) | 2.56 (−12.47 to 17.59) | −16.43 (−46.63 to 13.77) | −1.63 (−39.30 to 36.03) | 23.36 (−8.85 to 55.56) | 16.54 (−19.70 to 52.77) | −8.53 (−32.11 to 15.04) | −12.17 (−32.48 to 8.14) | 18 | 66% | 27 | 0.05 (−0.14 to 0.23) | inter-individual CV of blood concentrations ([1]; administered od): 51.8%; contribution of CYP2J2 to total clearance [7]: 14%; C2h, β (CI95%): Weight, per kg ([3]; genotype model, Table S4): 0.46 (0.04 to 0.88); C2h, β (CI95%): Dose 15 mg bid [3, 11]: 60.99 (29.95 to 92.04); C2h, β (CI95%): Dose 15 mg od [3, 11]: 29.53 (−2.56 to 61.63); C2h, β (CI95%): Dose 20 mg od [3, 11]: 57.40 (22.52 to 92.28); C2h, β (CI95%): Predicted phenotype from genotype CYP3A, NM [3, 9]: 20.74 (1.20 to 40.28); C2h, β (CI95%): CrCl, per unit ([6]; phenotype model, Table S3): −0.017(−0.49 to 0.34); C2h, β (CI95%): Intercept ([6]; phenotype model, Table S3): −77.74 (−161.1 to 5.63); C2h, β (CI95%): MRmidazolam, per log10 ([6]; phenotype model, Table S3): −8.35 (−30.17 to 13.47); C2h, β (CI95%): Weight, per kg ([6]; phenotype model, Table S3): 0.23 (−0.18 to 0.63); C2h, β (CI95%): Dose 15 mg bid [6, 12]: 41.5 (0.24 to 82.75); C2h, β (CI95%): Dose 15 mg od [6, 12]: 18.95 (−21.77 to 59.66); C2h, β (CI95%): Dose 20 mg od [6, 12]: 39.98 (−4.47 to 84.44); C2h, β (CI95%): Age 65–74 years ([6]; phenotype model, Table S3): 15.15 (−0.06 to 30.37); C2h, β (CI95%): Age 75–84 years ([6]; phenotype model, Table S3): 10.55 (−12.65 to 33.75); C2h, β (CI95%): Age >85 years ([6]; phenotype model, Table S3): 7.97 (−15.72 to 31.67); C2h, β (CI95%): Gender, Female ([6]; phenotype model, Table S3): 1.91 (−13.03 to 16.84)
